In ChEMBL document CHEMBL1148983, “A diketopiperazine dimer from a marine-derived isolate of Aspergillus niger” (J Nat Prod, 2004):

Assays:
[1] = Inhibition of mammalian 5'-Cap- RNA dependent translation in human HeLa cells after 60 mins by luciferase reporter gene assay; assay type: functional, cell-based; conditions: 1 h
[2] = Inhibition of viral IRES-mediated translation in human HeLa cells after 60 mins by luciferase reporter gene assay; assay type: functional, cell-based; conditions: 1 h

IC50 [1] | IC50 [2] | SMILES
> 100 µM | > 100 µM | COc1cc(C)c2c(OC)cc(=O)oc2c1-c1c(O)cc(C)c2c(OC)cc(=O)oc12 [DEMETHYLKOTANIN]
80 µM | 44 µM | COc1cc(O)cc2cc3oc(C)cc(=O)c3c(O)c12
> 100 µM | > 100 µM | COc1cc(O)cc2cc(O)c3c(=O)cc(C)oc3c12
> 100 µM | > 100 µM | CC(C)C[C@H]1NC(=O)[C@H]2C[C@@]3([C@@]45C[C@@H]6C(=O)N[C@H](C(C)C)C(=O)N6[C@@H]4Nc4ccccc45)c4ccccc4N[C@H]3N2C1=O
